Laboratory results taken from publication PMC11206519, “Multi-Endpoint Toxicological Assessment of Chrysin Loaded Oil-in-Water Emulsion System in Different Biological Models” (Nanomaterials, 2024).
Where two headings read alike, the source gives them in different places.

Experiments:
[1] = tested on: D. melanogaster trans-heterozygous mwh+/+flr3 larvae of the HB cross; assay: SMART wing spot test, anti-mutagenicity, HB cross
Description: The somatic mutation and recombination test, or the wing spot test, using D. melanogaster was employed as an in vivo system to assess the mutagenicity and anti-mutagenicity of chrysin-ES. Two different crosses were conducted: (i) a standard cross (ST) and (ii) a high bioactivation cross (HB). The standard cross larvae were obtained from virgin female of flr3/TM3, Ser crossed with males of mwh/mwh, while the HB cross larvae expressing cytochrome P450 enzymes involved in xenobiotic biotransformation were obtained from virgin females of ORR/ORR; flr^3/In (3LR) TM3, ri p^psep l (3)89Aa bx^34e e Bd^s crossed with males of mwh/mwh. The flies were cultured at a constant temperature of 25 ± 1 °C and 60–70% RH at photoperiod 12:12 (light/dark). To evaluate the mutagenicity of chrysin and chrysin-ES, a hundred larva F1 progenies derived from the above crossing were fed with instant Drosophila medium (Formula 4-24®), Carolina, Burlington, NC, USA) containing chrysin or chrysin-ES (20–120 µg/mL). DI was used as a negative control, while 20 mM urethane (URE) was used as a positive control. The larvae were reared on each medium until pupation at 25 °C. After that, forty wings of surviving flies in each group were collected for mutant analysis. The mutant spots on the wings, including small single spots, large single spots, and twin spots, were counted. The statistical significance was calculated as previously described by Frei and Würgler.
Furthermore, the anti-mutagenicity of the samples was performed by a similar procedure as mentioned above.

[2] = cited from earlier work
S. typhimurium TA100 = assay: Ames test, anti-mutagenicity
Description: Furthermore, the anti-mutagenicity of the samples was performed by a similar procedure, as mentioned above. […] The percentage inhibition (decrease revertant colony number) was calculated as in the following equation:Anti-mutagenicity (%) = [1 − (b/a)] × 100 • a = revertant colony number induced via standard mutagen (positive control). • b = revertant colony number induced by standard mutagen in the presence of each sample treatment.
The percent of inhibition between 0–20%, 21–40%, 41–60%, and higher than 60% indicate negligible, weak, moderate, and strong anti-mutagenicity, respectively.

[3] = AF-2 0.1 µg/plate, −S9, 5.7 µM/plate
[4] = AF-2 0.1 µg/plate, −S9, 11.4 µM/plate
[5] = AF-2 0.1 µg/plate, −S9, 22.8 µM/plate
[6] = IQ 0.05 µg/plate, +S9, 0.35 µM/plate
[7] = IQ 0.05 µg/plate, +S9, 0.70 µM/plate
[8] = IQ 0.05 µg/plate, +S9, 1.40 µM/plate
[9] = IQ 0.05 µg/plate, +S9, 2.85 µM/plate
[10] = IQ 0.05 µg/plate, +S9, 5.70 µM/plate

## O=c1cc(-c2ccccc2)oc2cc(O)cc(O)c12 [Chrysin, 5,7-dihydroxyflavone]
[1]; NMU + 80 μg/mL
  Inhibition (%): 81%
  Inhibitory Classification: Strong
  Mutant spots per individual (number of spots), Large Single: 0.04 (1)
  Mutant spots per individual (number of spots), Small Single: 0.32 (9)
  Mutant spots per individual (number of spots), Total: 0.36 (10)
  Mutant spots per individual (number of spots), Twin: 0 (0)
[1]; NMU + 120 μg/mL
  Inhibition (%): 95%
  Inhibitory Classification: Strong
  Mutant spots per individual (number of spots), Large Single: 0.05 (2)
  Mutant spots per individual (number of spots), Small Single: 0.05 (2)
  Mutant spots per individual (number of spots), Total: 0.10 (4)
  Mutant spots per individual (number of spots), Twin: 0 (0)
[1]; URE 20 mM + 20 μg/mL
  Inhibition (%): 84%
  Inhibitory Classification: Strong
  Mutant spots per individual (number of spots), Large Single: 0.15 (6)
  Mutant spots per individual (number of spots), Small Single: 1.55 (62)
  Mutant spots per individual (number of spots), Total: 1.70 (68)
  Mutant spots per individual (number of spots), Twin: 0 (0)
[1]; URE 20 mM + 40 μg/mL
  Inhibition (%): 84%
  Inhibitory Classification: Strong
  Mutant spots per individual (number of spots), Large Single: 0 (0)
  Mutant spots per individual (number of spots), Small Single: 1.75 (70)
  Mutant spots per individual (number of spots), Total: 1.75 (70)
  Mutant spots per individual (number of spots), Twin: 0 (0)
[1]; URE 20 mM + 80 μg/mL
  Inhibition (%): 92%
  Inhibitory Classification: Strong
  Mutant spots per individual (number of spots), Large Single: 0.03 (1)
  Mutant spots per individual (number of spots), Small Single: 0.88 (35)
  Mutant spots per individual (number of spots), Total: 0.90 (36)
  Mutant spots per individual (number of spots), Twin: 0 (0)
[1]; URE 20 mM + 120 μg/mL
  Inhibition (%): 89%
  Inhibitory Classification: Strong
  Mutant spots per individual (number of spots), Large Single: 0.08 (3)
  Mutant spots per individual (number of spots), Small Single: 1.08 (43)
  Mutant spots per individual (number of spots), Total: 1.18 (47)
  Mutant spots per individual (number of spots), Twin: 0.03 (1)
[2]
  chrysin uptake eliminated in the feces: 98%
S. typhimurium TA100; [3]
  Inhibitory Classification: Mild
  Number of Revertant Colonies: 252 ± 14
S. typhimurium TA100; [4]
  Inhibitory Classification: Mild
  Number of Revertant Colonies: 250 ± 6
S. typhimurium TA100; [5]
  Inhibitory Classification: Mild
  Number of Revertant Colonies: 235 ± 20
S. typhimurium TA100; [6]
  Inhibitory Classification: Moderate
  Number of Revertant Colonies: 328 ± 32
S. typhimurium TA100; [7]
  Inhibitory Classification: Strong
  Number of Revertant Colonies: 243 ± 16
S. typhimurium TA100; [8]
  Inhibitory Classification: Strong
  Number of Revertant Colonies: 161 ± 10
S. typhimurium TA100; [9]
  Inhibitory Classification: Strong
  Number of Revertant Colonies: 106 ± 15
S. typhimurium TA100; [10]
  Inhibitory Classification: Strong
  Number of Revertant Colonies: 47 ± 10
S. typhimurium TA100; Salmonella enterica, TYPHIMURIUM, read-out: % mutagenic inhibition, AF-2 0.1 µg/plate, −S9, 5.7 µM/plate
  inhibition at […]: 32%
S. typhimurium TA100; Salmonella enterica, TYPHIMURIUM, read-out: % mutagenic inhibition, AF-2 0.1 µg/plate, −S9, 11.4 µM/plate
  inhibition at 11.4 µM: 32%
S. typhimurium TA100; Salmonella enterica, TYPHIMURIUM, read-out: % mutagenic inhibition, AF-2 0.1 µg/plate, −S9, 22.8 µM/plate
  inhibition at 22.8 µM: 37%
S. typhimurium TA100; Salmonella enterica, TYPHIMURIUM, read-out: % mutagenic inhibition, IQ 0.05 µg/plate, +S9, 0.35 µM/plate
  inhibition at 0.35 µM: 56%
S. typhimurium TA100; Salmonella enterica, TYPHIMURIUM, read-out: % mutagenic inhibition, IQ 0.05 µg/plate, +S9, 0.70 µM/plate
  inhibition at 0.7 µM: 67%
S. typhimurium TA100; Salmonella enterica, TYPHIMURIUM, read-out: % mutagenic inhibition, IQ 0.05 µg/plate, +S9, 1.40 µM/plate
  inhibition at 1.4 µM: 78%
S. typhimurium TA100; Salmonella enterica, TYPHIMURIUM, read-out: % mutagenic inhibition, IQ 0.05 µg/plate, +S9, 2.85 µM/plate
  inhibition at 2.85 µM: 86%
S. typhimurium TA100; Salmonella enterica, TYPHIMURIUM, read-out: % mutagenic inhibition, IQ 0.05 µg/plate, +S9, 5.70 µM/plate
  inhibition at […]: 94%
